Source: US12161630B2, “Methods to control infection using new generation small molecule growth inhibitors” (priority 2017, dated 2024)

Legend:
[1] = tested on: Avian Pathogenic E. coli (O1, O2, O8, O15, O18, O35, O78, O109, and O115); test: Activity on avian pathogens at 200 μM, Avian Pathogenic E. coli; type: cell-based, Escherichia coli
Procedure: FIGS. 1(A-E). Selection of potent Salmonella growth inhibitors. FIG. 1A: High-throughput screening of 4182 SMs against S. typhimurium WT at 200 μM. Negative value: growth inhibition; Positive value: growth stimulation compared to S. typhimurium growth not treated. The black line represents growth inhibition caused by 2% DMSO. FIG. 1B: Activity of 19 S. typhimurium growth inhibitors against additional Salmonella serotypes. Light grey cells: total growth inhibition; dark grey cells: bacterial growth observed; black cells: not determined. FIG. 1C: Dose-response assays of the selected 19 SMs against S. typhimurium WT. […] The black line represents a cut off of nine serotypes killed per SM. FIG. 1E: Activity spectra of the selected four SMs at 200 μM each on several avian-pathogens (Campylobacter jejuni, Escherichia coli APEC, and Mycoplasma gallisepticum) and beneficial gut bacteria (remaining species). E. coli APEC refers to Avian Pathogenic E. coli and includes E. coli O1, O2, O8, O15, O18, O35, O78, O109, and O115. Light grey cells: cidal effect; dark grey cells: bacterial growth observed. Left side: phylogenetic tree based on NCBI taxonomic ID built with PhyloT software.
The selected four SMs were tested on twelve beneficial-commensal gut bacteria at 200 μM (FIG. 1E). […] These four SMs were also growth inhibitors of other avian pathogens at 200 μM (unpublished data, FIG. 1E). […]

[2] = tested on: twelve beneficial-commensal gut bacteria; test: Activity spectrum on twelve beneficial-commensal gut bacteria at 200 μM; type: cell-based
Procedure: SM activity spectrum: The 128 selected SMs were tested for antimicrobial effects on nine different serotypes frequently implicated in foodborne gastroenteritis outbreaks. Later in the study, the four best SMs were tested against twelve beneficial/commensal gut bacteria. Both screens were performed at 200 μM as described in the primary screening. Growth conditions for each strain are described in Table 1.

sheep red blood cells = test: Hemolytic activity in sheep RBCs; type: cell-based; settings: 200 μM, one-hour treatment
Procedure: (§1) Briefly, 200 μl of 10% sheep red blood cells (RBCs; LAMPIRE Biological Laboratories, Pipersville, PA) suspension was incubated with 1 μl of SMs (200 μM) for one hour at 37° C. in a sterile, non-treated, flat bottom plate 96-well. After incubation, the plate was centrifuged at 4000 rpm for 5 min at 4° C., then placed on ice for five min. 100 μL of the supernatant was transferred into a new sterile, treated, flat bottom 96-well plate, and the OD was measured at 540 nm. For this experiment, 2% DMSO (negative control) and 0.1% Triton-100X (positive control) were used. % Hemolysis=(OD540 SM−OD540 DMSO)/(OD540 1× triton−OD540 PBS)×100. Similar experiment was performed with chicken RBCs (OARDC, Ohio).

chicken red blood cells = test: Hemolytic activity in chicken RBCs; type: cell-based; settings: 200 μM, one-hour treatment
Procedure: as §1

chicken cecal microbiota = test: Cecal microbiota 16S rRNA sequencing of SM-treated infected chickens; type: in vivo, broiler chickens; settings: compared to DMSO group (P<0.01)
Procedure: DNA extraction and sequencing: Microbiota diversity and abundance were investigated using the second cecum directly stored in −80° C. Genomic DNA was extracted using the PureLink Microbiome DNA Purification Kit (Life Technologies, Invitrogen Corp.), combined with RNAse treatment (10 units/hour). About 0.15 g to 0.20 g of cecum content was processed according to manufacturer's instructions. After quality control with electrophoresis and nanodrop, extracted DNA samples were subjected for 16S rRNA V4-V5 variable region sequencing. As a first step of targeted sequencing, amplicon libraries were prepared by using Phusion® High-Fidelity PCR Kit (New England Biolabs Inc, Ipswich, MA) in a 96-well plate. 25 μL of PCR reactions were prepared using 5 μl (5×) of PCR buffer, 4 μl (5 ng/μl) of DNA sample, and 2.5 μl (2 μM) primer, 0.5 μl (10 mM) dNTPs, 0.2 μl of enzyme, and nuclease free water to final volume. The barcoded primers targeted the V4-V5 variable region. […] Sample concentrations were measured, and equal concentration of all samples were pooled into one flow cell and sequenced using Illumina MiSeq 300-base, paired-end kit at the Molecular and Cellular Imaging Center (Ohio Agricultural Research & Development Center, Wooster, OH).
Bioinformatics analyses: After sequencing, a quality control of the raw reads was performed using FastQC (Babraham Bioinformatics, Cambridge, USA). […] Details concerning the parameters used are described in mcbl.readthedocs.io/en/latest/mcbl-tutorials-AD-clean.html. […] Then samples were processed using Quantitative Insights Into Microbial Ecology (QIIME) software version 1.9 (16). Operational Taxonomy Units (OTUs) were determined by clustering reads against Greengenes 16S reference dataset (2013-08 release) at a 97% identity using open picking reference OTU (pick_open_reference_otus.py) method using default parameters, except setting minimum OTU size to 10. […]

## CCCCCCCCCCCCCCCC[n+]1ccn(CC#N)c1.[Cl-] [SM3, 1-(cyanomethyl)-3-hexadecyl-1H-imidazol-3-ium chloride]
[1]
  effect against Avian Pathogenic E. coli: lethal
[2]
  activity on twelve beneficial-commensal gut bacteria: killing all twelve strains tested

## CC1CCC(C(C)C)C(OC(=O)Cn2c[n+](CC(=O)OC3CC(C)CCC3C(C)C)c3ccccc32)C1.[Cl-] (centres unmarked) [SM1, 1,3-bis{2-[(2-isopropyl-5-methylcyclohexyl)oxy]-2-oxoethyl}-1H-3,1-benzimidazol-3-ium chloride]
Sheep red blood cells
  hemolytic activity in sheep RBCs: > 50%
Chicken red blood cells
  hemolytic activity in chicken RBCs: > 50%
Chicken cecal microbiota
  abundance of Salmonella OTUs in ceca: reduction

## CCOc1cc(/C=N/N=C(N)N)ccc1OCc1ccc(Cl)cc1 [SM5, N″-{4-[(4-chlorobenzyl)oxy]-3-ethoxybenzylidene}carbonohydrazonic diamide]
Sheep red blood cells
  hemolytic activity in sheep RBCs: lower than 1%
Chicken red blood cells
  hemolytic activity in chicken RBCs: lower than 1%
Chicken cecal microbiota
  abundance of Salmonella OTUs in ceca: reduced abundance

## CCCCCCCCCCCCCCCCn1c[n+](C)c2ccccc21.[Br-] [SM4, 1-hexadecyl-3-methyl-1H-3,1-benzimidazol-3-ium bromide]
[1]
  effect against Avian Pathogenic E. coli: lethal
[2]
  activity on twelve beneficial-commensal gut bacteria: killing all twelve strains tested
Chicken cecal microbiota
  abundance of Salmonella OTUs in ceca: reduced abundance
